# Biological target: Secreted effector protein (Yersinia pestis, UniProt O68720)
# Assay: Inhibition of Yersinia pestis YopH after 15 mins by pNPP hydrolysis assay
# Secreted effector protein, sequence (O68720 whole entry): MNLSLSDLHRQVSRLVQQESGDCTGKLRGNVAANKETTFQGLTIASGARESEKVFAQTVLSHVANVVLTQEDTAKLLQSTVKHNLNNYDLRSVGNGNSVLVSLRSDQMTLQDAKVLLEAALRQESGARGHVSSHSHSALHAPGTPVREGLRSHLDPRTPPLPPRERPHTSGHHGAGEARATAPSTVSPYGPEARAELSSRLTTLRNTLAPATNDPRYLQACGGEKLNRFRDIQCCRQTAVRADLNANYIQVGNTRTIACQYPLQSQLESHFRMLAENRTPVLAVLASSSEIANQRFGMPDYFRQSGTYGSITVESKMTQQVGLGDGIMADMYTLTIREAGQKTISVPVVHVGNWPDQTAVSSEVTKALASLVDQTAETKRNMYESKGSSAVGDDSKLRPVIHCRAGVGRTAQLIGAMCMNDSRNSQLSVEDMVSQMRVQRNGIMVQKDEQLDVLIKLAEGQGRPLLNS
compound,measurement,value
O=C(O)c1cc(/C=N/OCCCCCCCCCCO/N=C/c2ccc(OCc3ccccc3)cc2)ccc1O,IC50,2400 nM

# — ChEMBL document CHEMBL1157897, “A rapid oxime linker-based library approach to identification of bivalent inhibitors of the Yersinia pestis protein-tyrosine phosphatase, YopH” (Bioorg Med Chem Lett, 2010)
